Where two headings read alike, the source gives them in different places.
Experiments:
C. tropicalis = assay: Toxicity tests of additional substrates (absorbance at 600 nm); assay type: cell-based; conditions: 24 hours, added without solvent
Description: Additional substrates were to be tested for bioconversion following a slightly different protocol than the one noted above in Example 3. Those substrates also had to be tested for toxicity similar to the test described in Example 2, to determine the highest concentration at which a substrate could be added to a culture broth without being toxic, inhibiting growth, or interfering with the bioconversion process. C. tropicalis was grown in the presence of the substrate at three different concentrations and growth was monitored spectrophotometrically. In contrast to Example 2, all test substrates were added directly to the culture medium without dissolving in solvent. The tests were completed as follows:
On the first day, H5343 was grown in YPD medium (25.0 ml seed culture) overnight on a rotary shaker at 30° C. and 250 rpm. The next day 1.0 ml of the seed culture was used to inoculate a new flask of 50 ml YPD. This culture was grown overnight on a rotary shaker at 30° C. and 250 rpm. […]
Two control flasks were each inoculated with H5343 in 25 ml YPD. All flasks were incubated on a rotary shaker at 30° C. and 250 rpm.
After 24 hours incubation, the absorbance at 600 nm of the test and control flask cultures was determined, using uninoculated YPD broth as blank. Cultures were diluted so that the OD^600 nm measured between 0.15 and 0.3.
For strongly inhibitory substrates, a concentration of 0.1-0.2% was chosen for the bioconversion tests.

[1] = tested on: C. tropicalis strain H5343; assay: Toxicity tests of substrates (growth by absorbance at 600 nm, streak plates); assay type: cell-based; conditions: 48 h, 30° C., dilution in YPD 1:100
Description: The toxicity test used here was similar to that used for the solvents described in Example 1. The goal was to determine the highest concentration at which a substrate could be added to a culture broth without being toxic, inhibiting growth, or interfering with the bioconversion process. C. tropicalis strain H5343 was grown in the presence of the substrate at different concentrations and growth was monitored spectrophotometrically. In order to determine if the substrate was lethal or was simply inhibiting growth, the cultures were examined under the microscope and streak plates of YPD and LB agar were prepared. Contamination of the culture with an unwanted organism could also be detected using this approach.
6 ml was transferred to the first tube and 3 ml to the rest. 1% substrate was added to the first tube and then serially diluted to give concentrations from 1% to 0.015%. Since the last tube was initially empty, the concentration in the last two tubes was the same. […] As a growth-control one culture without substrate was inoculated.
To determine if contamination had occurred, each culture was examined under the microscope and streak plates of both YPD and LB were made from the 1% and the inoculated 0.015% tube.

[2] = tested on: C. tropicalis strain H5343; conditions: for nontoxic concentration of solvent: growth of strain H5343; for ABS Lambda = 600.0 nm: 24 h, 30° C., dilution in YPD 1:100

SMILES	Absorbance at 600 nm (C. tropicalis; substrate concentration 0.1%)	Absorbance at 600 nm (C. tropicalis; substrate concentration 0.5%)	Absorbance at 600 nm (C. tropicalis; substrate concentration 1.0%)	nontoxic concentration of solvent [2]	ABS Lambda = 600.0 nm ([2]; solvent concentration 0.25%)	ABS Lambda = 600.0 nm ([2]; solvent concentration 0.5%)	ABS Lambda = 600.0 nm ([2]; solvent concentration 1%)	ABS Lambda = 600.0 nm ([2]; solvent concentration 2%)	ABS Lambda = 600.0 nm ([2]; solvent concentration 4%)	also measured
CCCCCCCCC(CO)CCCCCC (stereo not shown) [2-Hexyl-1-decanol]	24.43	19.73	11.93							ABS 600.0 nm ([1]; substrate concentration 0.01563%): 0.120; ABS 600.0 nm ([1]; substrate concentration 0.0313%): 0.145; ABS 600.0 nm ([1]; substrate concentration 0.063%): 0.110; ABS 600.0 nm ([1]; substrate concentration 0.13%): 0.273; ABS 600.0 nm ([1]; substrate concentration 0.25%): 0.145; ABS 600.0 nm ([1]; substrate concentration 0.5%): 0.122; ABS 600.0 nm ([1]; substrate concentration 1%): 0.117
CC(C)=O [Acetone]				≤ 4%	0.123	0.183	0.111	0.149	0.087	
C=COCCCCCCCCCCCC [Dodecylvinylether]	20.43	12.63	7.33							
CCO [Ethanol]				4%	0.122	0.104	0.137	0.119	0.090	
CCC1CCCCC1 [Ethylcyclohexane]										Absorbance at 600 nm (C. tropicalis; substrate concentration 0.06%): 9.45; Absorbance at 600 nm (C. tropicalis; substrate concentration 0.3%): 2.03; Absorbance at 600 nm (C. tropicalis; substrate concentration 0.6%): 16.5
CCCCCC [Hexane]				2%	0.119	0.148	0.119	0.126	0.005	
CCCCCCOCCCCCC [Hexyl Ether, Dihexyl Ether]	12.85	13.21	3.33							
CC1CCCCC1 [Methylcyclohexane]										Absorbance at 600 nm (C. tropicalis; substrate concentration 0.06%): 13.7; Absorbance at 600 nm (C. tropicalis; substrate concentration 0.3%): 15.6; Absorbance at 600 nm (C. tropicalis; substrate concentration 0.6%): 0.16
CCCCCOCCCCC [Pentyl Ether, Dipentyl Ether]	2.033	1.863	1.813							
CCCC1CCCCC1 [Propylcyclohexane]	44.13	34.12	1.201							

From patent publication US7405063B2, “Biooxidation capabilities of Candida sp” (Cognis Corporation, priority 2000, dated 2008)
